In patent US20070185084A1, “COMPOSITIONS OF AN ANTICONVULSANT AND METHODS OF USING THE SAME FOR REVERSING WEIGHT GAIN” (Orexigen Therapeutics, Inc., priority 2006, published 2007):
“Also recorded” adds a separate entry of the source. Like-named read-outs stand apart in the source and are kept apart here.

Key:
[1] = Example 10: co-treatment with zonisamide in rodent model of olanzapine-induced weight gain (body weight, food intake); assay type: in vivo, Sprague-Dawley rats
Method: Female Sprague-Dawley rats, weighing about 235 grams at the start of the experiment were used. They were trained to sham injections, using the zonisamide vehicle for 2 weeks before the study commenced. Under isoflurane anesthesia, Alzet osmotic minipumps (2 ml2) were implanted subcutaneously, between the shoulder blades. The rats were subsequently returned to their home cages after recovery. The minipumps delivered 5 μL per hour for 14 days. […] The animals were housed individually and supplied with standard laboratory chow. Food consumed and animal weights were recorded every days. […] Rats were allowed to recover after pump implantation, and then received twice daily injections of zonisamide 26 mg/kg.

[2] = Example 11: zonisamide started one week after olanzapine pump implantation in rodent model of olanzapine-induced weight gain; assay type: in vivo, rats
Method: Female Sprague-Dawley rats, weighing about 235 grams at the start of the experiment were used. They were trained to sham injections, using the zonisamide vehicle for 2 weeks before the study commenced. Under isoflurane anesthesia, Alzet osmotic minipumps (2 ml2) were implanted subcutaneously, between the shoulder blades. The rats were subsequently returned to their home cages after recovery. The minipumps delivered 5 μL per hour for 14 days. Olanzapine was dissolved in 1.5% lactic acid in dH2O. Zonisamide was dissolved in 10% DMSO, 13.4% EtOH, 20.1% PPG, and […]. Olanzapine dose was 1.75 mg/day via the minipump. The animals were housed individually and supplied with standard laboratory chow. Food consumed and animal weights were recorded every days. There were 5 animals in the control (vehicle) group, 5 animals in the zonisamide only group, 4 animals in the olanzapine only group, and 6 animals in the olanzapine+zonisamide group.
Rats were allowed to recover after pump implantation, and then received twice daily injections of zonisamide 26 mg/kg. Their food intake and body weight were calculated daily for 15 days.
The protocol used was the same as described in Example 12, with the exception that the treatment with zonisamide began one week after implantation of the olanzapine osmotic pumps, and food intake and body weight were calculated daily for 10 days.

[3] = Example 12 case study: zonisamide added to clonazepam, fluoxetine and lamotrogine, bipolar patient; assay type: in vivo, human; settings: zonisamide 100 mg qD added to clonazepam, fluoxetine, lamotrogine; person
Method: A person having biopolar disorder, Type I, had been treated for just over year by their psychiatrist using clonazepam 1 mg qHS, fluoxetine 20 mg qd, and lamotrogine 300 mg qD. One particular complaint was that they had “constant thoughts of eating”. Their psychiatrist started them on zonisamide 100 mg qD. […] The dose was continued and despite multiple stressors at home, they continued to do well on the treatment regimen.

[4] = Example 13 case study: zonisamide in patient with weight gain on paroxetine and risperidone; assay type: in vivo, human
Method: They were therefore started on zonisamide 100 mg, increased to 200 mg. […] The dose was then increased to 300 mg and then to 600 mg.

[5] = Example 14 case study: bupropion and zonisamide added to olanzapine and valproate; assay type: in vivo, human
Method: At this point, zonisamide was added to their medication regimen at 100 mg/day and the dose was increased to 200 mg/day after two weeks.

[6] = cited from earlier work
[7] = tested on: Proopiomelanocortin (POMC) neurons; test: Electrophysiology: action current frequency of POMC neurons in brain slices, loose cell attached patch; assay type: cell-based, POMC-EGFP mice; settings: for frequency of action currents (activity) of POMC neurons: zonisamide 10 μM, FIG. 1
Method: The electrophysiological activity of Proopiomelanocortin (POMC) neurons in brain slices from POMC-EGFP mice was recorded. The POMC neurons in these mice are identified by the expression of green fluorescent protein (EGFP) in these, and only these, cells. The frequency of action potentials in these neurons were recorded using standard electrophysiological techniques. In particular, loose cell attached patch configuration is used to determine action current frequency, whilst minimally disturbing the cells.
The basal activity was recorded, and then olanzapine (100 nM) was added to the tissue bath to determine the effect of olanzapine on the activity of POMC neurons. […] Then the effect of zonisamide on the reduction in activity caused by […] was tested by adding olanzapine plus zonisamide (10 μM) to the bath.

[8] = Day 1.00, rats, olanzapine 1.75 mg/day minipump, zonisamide 26 mg/kg twice daily
[9] = Day 7.00, rats, zonisamide begun one week after olanzapine pump implantation
[10] = zonisamide added to olanzapine, valproate, bupropion

Cc1cc2c(s1)Nc1ccccc1N=C2N1CCN(C)CC1 [Olanzapine, olanzapine]
Change in Food Intake Post Pump Implant, Mean [1, 8]: 16.56 | Cumulative Change in Body Weight, Mean [1, 8]: 7.44 | Change in Food Intake Post Pump Implant, Mean ([1]; Day 2.00): 39.82 | Cumulative Change in Body Weight, Mean ([1]; Day 4.00): 21.04 | Change in Food Intake Post Pump Implant, Mean ([1]; Day 5.00): 62.30 | Cumulative Change in Body Weight, Mean ([1]; Day 5.00): 19.22 | Change in Food Intake Post Pump Implant, Mean ([1]; Day 6.00): 86.14 | Cumulative Change in Body Weight, Mean ([1]; Day 6.00): 20.56 | Change in Food Intake Post Pump Implant, Mean ([1]; Day 7.00): 105.74 | Cumulative Change in Body Weight, Mean ([1]; Day 7.00): 30.88 | Change in Food Intake Post Pump Implant, Mean ([1]; Day 8.00): 119.30 | Cumulative Change in Body Weight, Mean ([1]; Day 8.00): 27.56 | Change in Food Intake Post Pump Implant, Mean ([1]; Day 9.00): 144.98 | Cumulative Change in Body Weight, Mean ([1]; Day 9.00): 32.94 | Change in Food Intake Post Pump Implant, Mean ([1]; Day 10.00): 161.16 | Cumulative Change in Body Weight, Mean ([1]; Day 10.00): 34.98 | Change in Food Intake Post Pump Implant, Mean ([1]; Day 11.00): 180.96 | Cumulative Change in Body Weight, Mean ([1]; Day 11.00): 33.40 | Change in Food Intake Post Pump Implant, Mean ([1]; Day 12.00): 201.42 | Cumulative Change in Body Weight, Mean ([1]; Day 12.00): 40.76 | Change in Food Intake Post Pump Implant, Mean ([1]; Day 13.00): 224.38 | Cumulative Change in Body Weight, Mean ([1]; Day 13.00): 38.84 | Change in Food Intake Post Pump Implant, Mean ([1]; Day 14.00): 241.48 | Cumulative Change in Body Weight, Mean ([1]; Day 14.00): 43.28 | Cumulative Change in Body Weight, Mean ([1]; Day 15.00): 41.64 | Cumulative Change in Body Weiglt Post-Pump Implant, Mean [2, 9]: −0.46 | Cumulative Change in Food Intake Post-Pump Implant, Mean [2, 9]: 13.39 | Cumulative Change in Body Weiglt Post-Pump Implant, Mean ([2]; Day 8.00): −11.55 | Cumulative Change in Food Intake Post-Pump Implant, Mean ([2]; Day 8.00): 18.36 | Cumulative Change in Body Weiglt Post-Pump Implant, Mean ([2]; Day 9.00): 4.28 | Cumulative Change in Food Intake Post-Pump Implant, Mean ([2]; Day 9.00): 57.46 | Cumulative Change in Body Weiglt Post-Pump Implant, Mean ([2]; Day 10.00): 11.88 | Cumulative Change in Food Intake Post-Pump Implant, Mean ([2]; Day 10.00): 124.58 | Cumulative Change in Body Weiglt Post-Pump Implant, Mean ([2]; Day 11.00): 13.48 | Cumulative Change in Food Intake Post-Pump Implant, Mean ([2]; Day 11.00): 145.5 | Cumulative Change in Body Weiglt Post-Pump Implant, Mean ([2]; Day 12.00): 11.8 | Cumulative Change in Food Intake Post-Pump Implant, Mean ([2]; Day 12.00): 163.6 | Cumulative Change in Body Weiglt Post-Pump Implant, Mean ([2]; Day 13.00): 15.55 | Cumulative Change in Food Intake Post-Pump Implant, Mean ([2]; Day 13.00): 181.05 | Cumulative Change in Body Weiglt Post-Pump Implant, Mean ([2]; Day 14.00): 20.4 | Cumulative Change in Food Intake Post-Pump Implant, Mean ([2]; Day 14.00): 200.9 | Cumulative Change in Body Weiglt Post-Pump Implant, Mean ([2]; Day 15.00): 17.98 | Cumulative Change in Food Intake Post-Pump Implant, Mean ([2]; Day 15.00): 218.2 | Cumulative Change in Body Weiglt Post-Pump Implant, Mean ([2]; Day 16.00): 21.22 | Cumulative Change in Food Intake Post-Pump Implant, Mean ([2]; Day 16.00): 236.95

NS(=O)(=O)Cc1noc2ccccc12 [Zonisamide, zonisamide]
Change in Food Intake Post Pump Implant, Mean [1, 8]: 12.48 | Cumulative Change in Body Weight, Mean [1, 8]: 9.74 | Change in Food Intake Post Pump Implant, Mean ([1]; Day 2.00): 30.10 | Cumulative Change in Body Weight, Mean ([1]; Day 4.00): 20.24 | Change in Food Intake Post Pump Implant, Mean ([1]; Day 5.00): 46.02 | Cumulative Change in Body Weight, Mean ([1]; Day 5.00): 17.60 | Change in Food Intake Post Pump Implant, Mean ([1]; Day 6.00): 58.24 | Cumulative Change in Body Weight, Mean ([1]; Day 6.00): 19.34 | Change in Food Intake Post Pump Implant, Mean ([1]; Day 7.00): 72.10 | Cumulative Change in Body Weight, Mean ([1]; Day 7.00): 20.18 | Change in Food Intake Post Pump Implant, Mean ([1]; Day 8.00): 86.88 | Cumulative Change in Body Weight, Mean ([1]; Day 8.00): 17.32 | Change in Food Intake Post Pump Implant, Mean ([1]; Day 9.00): 104.86 | Cumulative Change in Body Weight, Mean ([1]; Day 9.00): 13.66 | Change in Food Intake Post Pump Implant, Mean ([1]; Day 10.00): 123.66 | Cumulative Change in Body Weight, Mean ([1]; Day 10.00): 14.62 | Change in Food Intake Post Pump Implant, Mean ([1]; Day 11.00): 140.40 | Cumulative Change in Body Weight, Mean ([1]; Day 11.00): 16.46 | Change in Food Intake Post Pump Implant, Mean ([1]; Day 12.00): 160.36 | Cumulative Change in Body Weight, Mean ([1]; Day 12.00): 21.08 | Change in Food Intake Post Pump Implant, Mean ([1]; Day 13.00): 177.70 | Cumulative Change in Body Weight, Mean ([1]; Day 13.00): 24.26 | Change in Food Intake Post Pump Implant, Mean ([1]; Day 14.00): 186.25 | Cumulative Change in Body Weight, Mean ([1]; Day 14.00): 27.52 | Cumulative Change in Body Weight, Mean ([1]; Day 15.00): 25.70 | effect on the weight gain associated with olanzapine ([1]; zonisamide added to concomitant olanzapine treatment, rats): decrease the weight gain associated with olanzapine | craving for food [3]: significantly reduced their craving for food | weight gain [3]: prevented weight gain | psychiatric symptoms ([4]; on zonisamide): improved | weight lost ([4]; zonisamide 100 mg, increased to 200 mg, in 3 weeks): 12 pounds | weight ([4]; zonisamide increased to 300 mg and then 600 mg, in 5 months): returned to baseline | weight lost ([5]; zonisamide 100 mg/day, 200 mg/day after two weeks, added to regimen, over the next 4 months): 15 lbs | adverse effects reported [5, 10]: no adverse effects | bipolar disorder symptoms [5, 10]: remained free of bipolar disorder symptoms | weight loss ([6]; patients presenting with primary obesity): significant weight loss | tolerability ([6]; versus placebo treatment): well tolerated | activity of POMC neurons inhibited by olanzapine ([7]; olanzapine plus zonisamide (10 μM) in the bath, FIG. 3): reversed the inhibition of POMC neurons | frequency of action currents (activity) of POMC neurons [7]: reversibly increased the activity of POMC neurons | frequency of action currents (activity) of POMC neurons ([7]; listed as zonisamide): increases the activity of POMC neurons | Cumulative Change in Body Weiglt Post-Pump Implant, Mean [2, 9]: −1.73 | Cumulative Change in Food Intake Post-Pump Implant, Mean [2, 9]: 13.15 | Cumulative Change in Body Weiglt Post-Pump Implant, Mean ([2]; Day 8.00): −11.38 | Cumulative Change in Food Intake Post-Pump Implant, Mean ([2]; Day 8.00): 18.62 | Cumulative Change in Body Weiglt Post-Pump Implant, Mean ([2]; Day 9.00): −1.28 | Cumulative Change in Food Intake Post-Pump Implant, Mean ([2]; Day 9.00): 46.87 | Cumulative Change in Body Weiglt Post-Pump Implant, Mean ([2]; Day 10.00): 5.8 | Cumulative Change in Food Intake Post-Pump Implant, Mean ([2]; Day 10.00): 101.08 | Cumulative Change in Body Weiglt Post-Pump Implant, Mean ([2]; Day 11.00): 6.37 | Cumulative Change in Food Intake Post-Pump Implant, Mean ([2]; Day 11.00): 116.93 | Cumulative Change in Body Weiglt Post-Pump Implant, Mean ([2]; Day 12.00): 0.86 | Cumulative Change in Food Intake Post-Pump Implant, Mean ([2]; Day 12.00): 126.64 | Cumulative Change in Body Weiglt Post-Pump Implant, Mean ([2]; Day 13.00): −4.79 | Cumulative Change in Food Intake Post-Pump Implant, Mean ([2]; Day 13.00): 133.95 | Cumulative Change in Body Weiglt Post-Pump Implant, Mean ([2]; Day 14.00): −11.79 | Cumulative Change in Food Intake Post-Pump Implant, Mean ([2]; Day 14.00): 141.09 | Cumulative Change in Body Weiglt Post-Pump Implant, Mean ([2]; Day 15.00): −10.3 | Cumulative Change in Food Intake Post-Pump Implant, Mean ([2]; Day 15.00): 153.61 | Cumulative Change in Body Weiglt Post-Pump Implant, Mean ([2]; Day 16.00): −9.37 | Cumulative Change in Food Intake Post-Pump Implant, Mean ([2]; Day 16.00): 167.93 | effect on olanzapine-induced weight gain ([2]; zonisamide one week after implantation of olanzapine pumps, rats): decrease the weight gain associated with olanzapine; also recorded: reversed olanzapine-induced weight gain

CC(NC(C)(C)C)C(=O)c1cccc(Cl)c1 (stereo not shown) [bupropion]
weight loss ([4]; trial of bupropion alone): did not cause significant weight loss | weight lost ([5]; bupropion 150 mg/day added to olanzapine and valproate, after 6 months): 23.6 lbs | adverse effect reported ([5]; bupropion dose raised to 300 mg/day): feeling hyperactive | weight regained ([5]; while continuing bupropion, over the next 10 months): 10.6 lbs
